# Measured values from article PMC3827223, “Bioorthogonal Small Molecule Imaging Agents Allow Single-Cell Imaging of MET” (PLoS ONE, 2013).
# How the values were obtained:
# [1] = tested on: MET phosphorylation (Y1234/1235) in OVCA429 cells; experiment: Western blot of HGF-stimulated MET phosphorylation in OVCA429 cells; format: cell-based, human; settings: for effect on MET phosphorylation: OVCA429 cells, 0.1, 0.5 or 1 μM pre-treatment 1 hr, 100 ng/ml HGF stimulation, Western blot densitometry
# Procedure: Cells were serum-starved in media containing 0.1% fetal bovine serum ~16 hrs before the assay. […] Phosphorylation was then stimulated with 100 ng/ml HGF diluted in RPMI with 1 mg/ml BSA for 5 min at 37°C. Cell lysates were then prepared and run on a gel as described above. Western blot analysis was performed as described above using the MET and phospho-MET primary antibodies (1:1000). Total MET and phospho-MET expression was quantified using densitometry (ImageJ).
# [2] = target: recombinant human MET (Homo sapiens, UniProt P08581); experiment: z'-LYTE FRET kinase activity assay, MET
# Procedure: (§1) The Tyr6 peptide kit was used to measure MET, RON, and AXL activity. The Tyr4 peptide kit was used for PDGFRα and the Tyr1 peptide kit was used to measure KDR activity. All assays were run in accordance with the manufacturer’s instructions, with minor modification. Briefly, MET, RON, and KDR were used at 0.2 μg/ml, 0.8 μg/ml, and 0.7 μg/ml, respectively. The kinase reaction buffer for MET, RON, and KDR was supplemented with 0.67% DMSO. AXL was used at 1.5 μg/ml and the reaction buffer was supplemented with 0.01% sodium azide and 0.67% DMSO. PDGFRα was used at 2.5 μg/ml and the reaction buffer was supplemented with 1mM DTT, 2mM MnCl2, and 0.67% DMSO. Inhibitors were prepared by 4-fold serial dilution at 75X the final concentration in 100% DMSO (8 μM to 0.1 nM). This stock was then diluted to 3X the final concentration in kinase reaction buffer. 5 μl of the 3X stock was added to the final 15 μl reaction volume. Both the z´-LYTE control phosho-peptide and the z´-LYTE peptide were used at a final concentration of 2 μM. […] Development reagent was then incubated for 1 hour at room temperature. […] IC50 values were obtained by fitting the dose-response curves using Prism 6 (GraphPad).
# [3] = target: T1, recombinant human AXL (Homo sapiens, UniProt P30530); experiment: z'-LYTE FRET kinase activity assay, AXL
# T1 sequence (P30530 26-894): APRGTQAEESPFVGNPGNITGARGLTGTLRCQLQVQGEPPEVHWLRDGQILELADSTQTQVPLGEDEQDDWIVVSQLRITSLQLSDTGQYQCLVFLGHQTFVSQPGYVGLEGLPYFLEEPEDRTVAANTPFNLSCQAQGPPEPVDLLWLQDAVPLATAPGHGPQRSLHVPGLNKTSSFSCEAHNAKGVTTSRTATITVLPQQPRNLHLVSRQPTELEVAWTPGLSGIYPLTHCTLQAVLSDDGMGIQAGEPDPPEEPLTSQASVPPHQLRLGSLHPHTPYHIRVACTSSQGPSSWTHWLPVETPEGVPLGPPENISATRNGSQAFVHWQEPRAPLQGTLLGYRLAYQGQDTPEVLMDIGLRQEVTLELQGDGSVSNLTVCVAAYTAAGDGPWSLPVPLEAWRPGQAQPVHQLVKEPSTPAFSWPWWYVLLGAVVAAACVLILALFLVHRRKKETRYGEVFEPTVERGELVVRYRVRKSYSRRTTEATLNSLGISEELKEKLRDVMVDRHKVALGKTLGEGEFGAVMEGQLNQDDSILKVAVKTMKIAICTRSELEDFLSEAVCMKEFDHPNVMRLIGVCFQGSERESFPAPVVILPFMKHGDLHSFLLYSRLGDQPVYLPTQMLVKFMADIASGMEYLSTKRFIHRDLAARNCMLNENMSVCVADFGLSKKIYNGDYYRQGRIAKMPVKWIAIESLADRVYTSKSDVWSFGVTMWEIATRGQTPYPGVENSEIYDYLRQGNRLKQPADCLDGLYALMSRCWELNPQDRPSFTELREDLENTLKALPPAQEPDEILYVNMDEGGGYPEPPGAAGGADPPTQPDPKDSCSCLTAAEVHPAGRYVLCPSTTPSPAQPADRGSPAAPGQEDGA
# Procedure: as §1
# [4] = target: recombinant Human RON (Homo sapiens, UniProt Q04912); experiment: z'-LYTE FRET kinase activity assay, RON
# Procedure: as §1
# [5] = target: recombinant Human PDGFRα (Homo sapiens, UniProt P16234); experiment: z'-LYTE FRET kinase activity assay, PDGFRα
# Procedure: as §1
# [6] = target: recombinant Human KDR (Homo sapiens, UniProt P35968); experiment: z'-LYTE FRET kinase activity assay, KDR
# Procedure: as §1
# [7] = Foretinib-TCO (11) IC50 value divided by Foretinib IC50 value
# Chain of recombinant human MET (P08581 25-1390): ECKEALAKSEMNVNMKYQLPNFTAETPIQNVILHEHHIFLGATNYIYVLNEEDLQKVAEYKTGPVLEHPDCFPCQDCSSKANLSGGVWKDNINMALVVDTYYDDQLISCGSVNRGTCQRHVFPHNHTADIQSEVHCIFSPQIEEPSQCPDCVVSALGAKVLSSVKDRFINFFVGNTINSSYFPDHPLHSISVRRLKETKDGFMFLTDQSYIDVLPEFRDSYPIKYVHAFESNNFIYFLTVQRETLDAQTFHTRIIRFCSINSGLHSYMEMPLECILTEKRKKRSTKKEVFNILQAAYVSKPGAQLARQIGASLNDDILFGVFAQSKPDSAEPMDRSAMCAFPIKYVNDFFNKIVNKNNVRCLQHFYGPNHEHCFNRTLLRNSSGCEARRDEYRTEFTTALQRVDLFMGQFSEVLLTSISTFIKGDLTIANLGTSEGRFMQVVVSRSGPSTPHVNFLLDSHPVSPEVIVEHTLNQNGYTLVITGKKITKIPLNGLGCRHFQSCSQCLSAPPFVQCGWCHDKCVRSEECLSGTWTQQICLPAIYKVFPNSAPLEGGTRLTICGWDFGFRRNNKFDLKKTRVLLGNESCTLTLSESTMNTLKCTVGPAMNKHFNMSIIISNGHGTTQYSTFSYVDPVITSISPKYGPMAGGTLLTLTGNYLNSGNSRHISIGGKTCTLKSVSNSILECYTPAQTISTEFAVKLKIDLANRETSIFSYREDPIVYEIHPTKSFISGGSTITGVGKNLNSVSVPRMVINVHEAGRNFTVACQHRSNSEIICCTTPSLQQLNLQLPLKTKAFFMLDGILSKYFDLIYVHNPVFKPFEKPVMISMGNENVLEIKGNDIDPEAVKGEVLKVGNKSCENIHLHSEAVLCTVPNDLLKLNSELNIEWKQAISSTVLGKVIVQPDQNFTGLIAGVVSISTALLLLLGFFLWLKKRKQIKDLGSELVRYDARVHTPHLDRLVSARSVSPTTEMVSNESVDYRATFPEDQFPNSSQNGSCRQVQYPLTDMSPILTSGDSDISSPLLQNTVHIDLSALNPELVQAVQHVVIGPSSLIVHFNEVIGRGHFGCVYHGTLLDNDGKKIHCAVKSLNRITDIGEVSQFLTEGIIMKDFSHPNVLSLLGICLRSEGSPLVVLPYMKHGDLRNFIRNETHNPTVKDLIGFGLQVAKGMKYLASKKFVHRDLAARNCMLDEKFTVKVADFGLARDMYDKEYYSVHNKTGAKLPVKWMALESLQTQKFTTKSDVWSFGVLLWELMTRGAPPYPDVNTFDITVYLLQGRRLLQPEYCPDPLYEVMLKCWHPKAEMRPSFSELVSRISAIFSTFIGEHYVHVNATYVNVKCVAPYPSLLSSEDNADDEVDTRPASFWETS
# Chain of recombinant Human PDGFRα (P16234 24-1089): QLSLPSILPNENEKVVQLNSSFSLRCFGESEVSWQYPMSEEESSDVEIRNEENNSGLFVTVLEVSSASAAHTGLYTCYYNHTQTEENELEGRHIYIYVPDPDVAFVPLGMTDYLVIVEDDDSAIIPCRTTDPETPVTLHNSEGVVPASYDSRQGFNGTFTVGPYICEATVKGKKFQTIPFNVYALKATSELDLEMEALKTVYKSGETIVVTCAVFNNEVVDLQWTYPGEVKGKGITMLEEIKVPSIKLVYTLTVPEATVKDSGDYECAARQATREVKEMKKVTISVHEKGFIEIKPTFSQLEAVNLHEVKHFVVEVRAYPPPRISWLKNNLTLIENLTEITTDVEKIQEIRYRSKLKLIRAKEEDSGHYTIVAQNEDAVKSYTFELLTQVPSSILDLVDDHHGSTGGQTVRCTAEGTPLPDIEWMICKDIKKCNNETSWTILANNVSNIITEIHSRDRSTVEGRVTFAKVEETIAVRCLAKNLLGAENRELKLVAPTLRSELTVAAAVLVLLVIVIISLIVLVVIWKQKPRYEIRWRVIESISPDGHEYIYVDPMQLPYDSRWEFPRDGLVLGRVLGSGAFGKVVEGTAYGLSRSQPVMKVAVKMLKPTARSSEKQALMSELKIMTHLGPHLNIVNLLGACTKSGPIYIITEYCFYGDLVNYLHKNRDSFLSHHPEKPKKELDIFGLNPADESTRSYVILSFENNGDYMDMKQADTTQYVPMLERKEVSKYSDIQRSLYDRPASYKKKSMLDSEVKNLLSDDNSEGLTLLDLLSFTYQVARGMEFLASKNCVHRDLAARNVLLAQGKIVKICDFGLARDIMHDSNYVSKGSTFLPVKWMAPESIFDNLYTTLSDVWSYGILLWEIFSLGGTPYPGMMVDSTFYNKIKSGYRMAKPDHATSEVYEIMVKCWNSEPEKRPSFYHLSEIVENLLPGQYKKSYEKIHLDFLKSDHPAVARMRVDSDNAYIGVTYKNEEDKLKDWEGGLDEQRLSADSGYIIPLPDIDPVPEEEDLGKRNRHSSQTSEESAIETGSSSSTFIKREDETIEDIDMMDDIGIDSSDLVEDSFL
# Chain of recombinant Human RON (Q04912 25-1400): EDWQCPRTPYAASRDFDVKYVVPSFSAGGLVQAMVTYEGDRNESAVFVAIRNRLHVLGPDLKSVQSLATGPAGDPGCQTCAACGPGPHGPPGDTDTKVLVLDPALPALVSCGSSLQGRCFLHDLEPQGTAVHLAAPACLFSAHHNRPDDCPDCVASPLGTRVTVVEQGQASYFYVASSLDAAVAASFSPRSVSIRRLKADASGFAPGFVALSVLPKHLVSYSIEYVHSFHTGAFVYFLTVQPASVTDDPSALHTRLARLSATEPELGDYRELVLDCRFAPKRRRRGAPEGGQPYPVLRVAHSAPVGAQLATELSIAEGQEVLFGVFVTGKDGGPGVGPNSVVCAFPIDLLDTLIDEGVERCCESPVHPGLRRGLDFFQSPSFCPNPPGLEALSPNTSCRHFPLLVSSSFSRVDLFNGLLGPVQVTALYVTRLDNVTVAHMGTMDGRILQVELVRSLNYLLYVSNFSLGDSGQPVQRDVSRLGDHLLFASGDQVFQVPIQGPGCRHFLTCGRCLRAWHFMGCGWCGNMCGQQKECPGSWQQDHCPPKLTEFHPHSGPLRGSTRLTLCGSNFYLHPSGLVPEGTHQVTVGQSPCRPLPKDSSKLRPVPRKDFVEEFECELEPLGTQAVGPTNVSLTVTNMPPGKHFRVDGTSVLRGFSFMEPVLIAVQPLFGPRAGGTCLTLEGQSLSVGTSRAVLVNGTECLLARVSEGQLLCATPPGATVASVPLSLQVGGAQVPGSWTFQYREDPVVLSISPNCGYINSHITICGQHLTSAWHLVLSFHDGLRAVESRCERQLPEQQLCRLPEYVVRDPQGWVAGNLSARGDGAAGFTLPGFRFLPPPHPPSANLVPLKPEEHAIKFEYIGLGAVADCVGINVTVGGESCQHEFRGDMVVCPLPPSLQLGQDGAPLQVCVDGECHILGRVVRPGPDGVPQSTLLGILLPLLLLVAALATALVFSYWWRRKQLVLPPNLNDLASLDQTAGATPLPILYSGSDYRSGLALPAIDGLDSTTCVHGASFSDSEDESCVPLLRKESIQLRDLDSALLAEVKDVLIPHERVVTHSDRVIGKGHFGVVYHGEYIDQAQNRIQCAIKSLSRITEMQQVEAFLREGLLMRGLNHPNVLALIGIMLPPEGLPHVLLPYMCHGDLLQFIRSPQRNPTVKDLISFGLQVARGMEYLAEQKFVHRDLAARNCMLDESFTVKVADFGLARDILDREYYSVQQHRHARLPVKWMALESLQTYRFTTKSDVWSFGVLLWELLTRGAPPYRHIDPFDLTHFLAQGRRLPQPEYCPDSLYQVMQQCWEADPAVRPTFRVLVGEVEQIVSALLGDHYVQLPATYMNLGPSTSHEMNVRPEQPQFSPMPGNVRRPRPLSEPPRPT
# Chain of recombinant Human KDR (P35968 20-1356): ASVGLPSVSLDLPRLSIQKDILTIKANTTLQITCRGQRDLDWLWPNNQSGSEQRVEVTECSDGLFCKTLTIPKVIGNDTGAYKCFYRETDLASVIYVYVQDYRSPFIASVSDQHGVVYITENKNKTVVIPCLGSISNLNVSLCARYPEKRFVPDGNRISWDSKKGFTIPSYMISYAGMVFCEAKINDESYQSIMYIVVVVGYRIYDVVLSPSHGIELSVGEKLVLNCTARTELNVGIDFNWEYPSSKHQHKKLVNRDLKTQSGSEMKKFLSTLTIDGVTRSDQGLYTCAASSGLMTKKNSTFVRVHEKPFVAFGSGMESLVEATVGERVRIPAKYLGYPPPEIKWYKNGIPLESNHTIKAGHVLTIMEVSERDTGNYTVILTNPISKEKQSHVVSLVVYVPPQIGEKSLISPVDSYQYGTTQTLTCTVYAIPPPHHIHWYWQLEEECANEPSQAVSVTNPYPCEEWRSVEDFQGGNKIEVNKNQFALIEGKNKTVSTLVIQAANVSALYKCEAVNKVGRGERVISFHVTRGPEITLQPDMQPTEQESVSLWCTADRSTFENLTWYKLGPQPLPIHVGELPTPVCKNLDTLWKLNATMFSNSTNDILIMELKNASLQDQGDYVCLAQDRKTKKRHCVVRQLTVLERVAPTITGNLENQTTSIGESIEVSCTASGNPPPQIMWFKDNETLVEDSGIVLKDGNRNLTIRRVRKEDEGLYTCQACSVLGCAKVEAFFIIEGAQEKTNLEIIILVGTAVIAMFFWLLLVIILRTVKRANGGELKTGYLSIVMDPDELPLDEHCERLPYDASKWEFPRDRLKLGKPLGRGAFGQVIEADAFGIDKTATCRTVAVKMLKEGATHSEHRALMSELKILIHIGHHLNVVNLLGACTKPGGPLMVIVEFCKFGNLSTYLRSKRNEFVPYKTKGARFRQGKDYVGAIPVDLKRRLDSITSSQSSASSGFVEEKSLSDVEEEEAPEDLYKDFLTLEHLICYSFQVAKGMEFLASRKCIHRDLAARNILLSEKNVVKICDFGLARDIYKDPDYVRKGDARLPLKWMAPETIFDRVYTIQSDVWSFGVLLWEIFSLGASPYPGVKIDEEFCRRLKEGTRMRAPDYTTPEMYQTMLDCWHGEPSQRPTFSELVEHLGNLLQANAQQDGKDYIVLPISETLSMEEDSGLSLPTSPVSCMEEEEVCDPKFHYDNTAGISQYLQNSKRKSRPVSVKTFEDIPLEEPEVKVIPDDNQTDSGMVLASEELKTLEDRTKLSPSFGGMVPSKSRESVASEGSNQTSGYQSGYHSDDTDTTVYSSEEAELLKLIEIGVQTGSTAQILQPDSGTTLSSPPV
compound,measurement,setting,value
"COc1cc2c(Oc3ccc(NC(=O)C4(C(=O)Nc5ccc(F)cc5)CC4)cc3F)ccnc2cc1OCCCN1CCOCC1 [Foretinib, N1’-[3-fluoro-4-[[6-methoxy-7-(3-morpholinopropoxy)-4-quinolinyl]oxy]phenyl]-N1-(4-fluorophenyl)cyclopropane-1,1-dicarboxamide, reference compound]",effect on MET phosphorylation,[1],complete decrease in MET phosphorylation
"COc1cc2c(Oc3ccc(NC(=O)C4(C(=O)Nc5ccc(F)cc5)CC4)cc3F)ccnc2cc1OCCCN1CCN(C(=O)CCc2ccc3n2[B-](F)(F)[N+]2=C(C)C=C(C)C2=C3)CC1 [Foretinib-BODIPY-FL, 5,5-difluoro-7-(3-(4-(3-((4-(2-fluoro-4-(1-((4-fluorophenyl)carbamoyl)cyclopropanecarboxamido)phenoxy)-6-methoxyquinolin-7-yl)oxy)propyl)piperazin-1-yl)-3-oxopropyl)-1,3-dimethyl-5H-dipyrrolo[1,2-c:2',1'-f][1,3,2]diazaborinin-4-ium-5-uide]",effect on MET phosphorylation,[1],decrease in MET phosphorylation
same,IC50,[2],697 nM
same,change of MET IC50 relative to Foretinib (loss in drug activity),[2]; from 28.7 nM to 697.4 nM,over 24 fold
"COc1cc2c(Oc3ccc(NC(=O)C4(C(=O)Nc5ccc(F)cc5)CC4)cc3F)ccnc2cc1OCCCN1CCN(C(=O)OC2CC/C=C/CCC2)CC1 (centres unmarked) [Foretinib-TCO, (E)-cyclooct-4-en-1-yl 4-(3-((4-(2-fluoro-4-(1-((4-fluorophenyl)carbamoyl)cyclopropanecarboxamido)phenoxy)-6-methoxyquinolin-7-yl)oxy)propyl)piperazine-1-carboxylate]",IC50,[3],72.5 nM
same,Fold Change (TCO/Foretinib) AXL,[3]; [7],3.4
same,effect on MET phosphorylation,[1],decrease in MET phosphorylation
same,potency in decreasing MET phosphorylation compared with the BODIPY-FL (12) version,"[1]; OVCA429 cells, 0.1-1 μM, HGF stimulation, Western blot",greater potency
same,IC50,[2],88.6 nM
same,Fold Change (TCO/Foretinib) MET,[2]; [7],3.1
same,IC50,[4],82.7 nM
same,Fold Change (TCO/Foretinib) RON,[4]; [7],4.1
same,IC50,[5],265 nM
same,Fold Change (TCO/Foretinib) PDGFRα,[5]; [7],4.5
same,IC50,[6],150 nM
same,Fold Change (TCO/Foretinib) KDR,[6]; [7],6.2
"O=C(NCCn1cc(-c2cnc3nnn(Cc4ccc5ncccc5c4)c3n2)cn1)OC1CC/C=C/CCC1 (centres unmarked) [PF04217903-TCO, (E)-cyclooct-4-en-1-yl (2-(4-(1-(quinolin-6-ylmethyl)-1H-[1,2,3]triazolo[4,5-b]pyrazin-6-yl)-1H-pyrazol-1-yl)ethyl)carbamate]",IC50,[2],1.48 nM
